Test results: publication PMC4639711, “The Helicase Activity of Hyperthermophilic Archaeal MCM is Enhanced at High Temperatures by Lysine Methylation” (Frontiers in Microbiology, 2015)

Experiments:
Assay type in all cases: biochemical
sisMCM (MCM) = target: T1, sisMCM (MCM) (Saccharolobus islandicus, UniProt F0NF15, K280M/K281M); assay: ATPase assay, [γ-32P]ATP, PEI cellulose TLC; details: 1 mM ATP, 100 nM protein, 10 mM magnesium acetate, pH 8.0, 65°C, 30 min; labelled compound; methylation-mimic mutant
T1 construct: recombinant, pGEX-6P-1 in E. coli BL21(DE3) CodonPlus RIL; GST tag removed with PreScission protease; apparent mass 75 kDa; hexamer

aKMT4 [1] = target: T2, aKMT4 (Saccharolobus islandicus, UniProt F0NBH8, G38R); assay: 3H-methyl incorporation into sisMCM, SDS-PAGE and autoradiography; details: methyl acceptor sisMCM (2 μM), 50°C, labelled compound, methyltransferase-deficient mutant, no activity seen
T2 construct: gene SiRe_1449; recombinant, overexpressed in E. coli BL21(DE3) CodonPlus RIL; purified as in Niu et al. 2013; apparent mass 18 kDa

aKMT4 [2] = target: T3, aKMT4 (Saccharolobus islandicus, UniProt F0NBH8); assay: as above; details: methyl acceptor sisMCM (2 μM), also automethylation, 50°C, labelled compound
T3 construct: gene SiRe_1449
T3 sequence (F0NBH8 whole entry): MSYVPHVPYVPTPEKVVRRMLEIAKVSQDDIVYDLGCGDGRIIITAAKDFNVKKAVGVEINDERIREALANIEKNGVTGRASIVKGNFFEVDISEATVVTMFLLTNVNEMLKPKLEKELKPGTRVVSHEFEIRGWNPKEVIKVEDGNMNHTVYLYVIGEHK

T2 sequence (F0NBH8 whole entry G38R): as the sequence (F0NBH8 whole entry) above, with G38R counted along it
T1 sequence (F0NF15 entry or part of it K280M/K281M): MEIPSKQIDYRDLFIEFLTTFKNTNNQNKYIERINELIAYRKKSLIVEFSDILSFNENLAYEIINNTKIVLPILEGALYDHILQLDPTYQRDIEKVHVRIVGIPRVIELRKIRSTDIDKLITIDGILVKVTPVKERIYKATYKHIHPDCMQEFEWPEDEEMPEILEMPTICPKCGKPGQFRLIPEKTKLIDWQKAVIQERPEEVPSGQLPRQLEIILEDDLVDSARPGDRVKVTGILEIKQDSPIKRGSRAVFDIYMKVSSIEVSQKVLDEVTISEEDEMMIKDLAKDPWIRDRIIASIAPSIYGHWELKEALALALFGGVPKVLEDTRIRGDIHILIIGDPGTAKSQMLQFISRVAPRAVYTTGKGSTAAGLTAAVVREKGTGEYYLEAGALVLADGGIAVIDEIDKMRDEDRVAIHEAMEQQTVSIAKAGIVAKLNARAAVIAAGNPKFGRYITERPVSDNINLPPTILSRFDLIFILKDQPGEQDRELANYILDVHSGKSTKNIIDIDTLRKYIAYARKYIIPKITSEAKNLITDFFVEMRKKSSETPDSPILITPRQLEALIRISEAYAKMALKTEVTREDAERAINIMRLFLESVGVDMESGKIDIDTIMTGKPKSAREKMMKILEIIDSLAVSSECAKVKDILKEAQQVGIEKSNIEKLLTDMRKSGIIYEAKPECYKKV

Compound	ATPase assay, [γ-32P]ATP, PEI cellulose TLC (sisMCM (MCM))	3H-methyl incorporation into sisMCM, SDS-PAGE and autoradiography (aKMT4 [1])	3H-methyl incorporation into sisMCM, SDS-PAGE and autoradiography (aKMT4 [2])
Nc1ncnc2c1ncn2[C@@H]1O[C@H](COP(=O)(O)OP(=O)(O)OP(=O)(O)O)[C@@H](O)[C@H]1O [ATP]	As for ATPase, K280M/K281M showed moderately decreased activity as wild type		
C[S+](CC[C@H](N)C(=O)O)C[C@H]1O[C@@H](n2cnc3c(N)ncnc32)[C@H](O)[C@@H]1O (stereo partly drawn) [AdoMet]		no tritium incorporation was observed in the presence of a methyltransferase-deficient mutant aKMT4-G38R	We noticed potent ^3H-methyl incorporation into sisMCM protein as well as aKMT4 itself
